Measurements reported in PMC9291951 (British Journal of Pharmacology, 2020).

Columns and labels:
hTRPV4-D546A = hTRPV4-D546A (Homo sapiens, UniProt Q9HBA0, D546A); experiment: Ca2+ imaging; type: cell-based; conditions: for Blocking effect in mutant versus wild-type channel: D546A
hTRPV4-Y591A = hTRPV4-Y591A (Homo sapiens, UniProt Q9HBA0, Y591A); experiment: Ca2+ imaging; type: cell-based
hTRPV4-Y591H = hTRPV4-Y591H (Homo sapiens, UniProt Q9HBA0, Y591H); experiment: Ca2+ imaging; type: cell-based
[1] = target: human TRPV4 wild-type (hTRPV4-WT) (Homo sapiens, UniProt Q9HBA0); experiment: Ca2+ imaging; type: cell-based; conditions: HeLa cells
TRPV4 = conditions: read-out: IC50 (antagonist); ref Cheung et al., 2017; cited from earlier work

hTRPV4-D546A, sequence (Q9HBA0 whole entry D546A): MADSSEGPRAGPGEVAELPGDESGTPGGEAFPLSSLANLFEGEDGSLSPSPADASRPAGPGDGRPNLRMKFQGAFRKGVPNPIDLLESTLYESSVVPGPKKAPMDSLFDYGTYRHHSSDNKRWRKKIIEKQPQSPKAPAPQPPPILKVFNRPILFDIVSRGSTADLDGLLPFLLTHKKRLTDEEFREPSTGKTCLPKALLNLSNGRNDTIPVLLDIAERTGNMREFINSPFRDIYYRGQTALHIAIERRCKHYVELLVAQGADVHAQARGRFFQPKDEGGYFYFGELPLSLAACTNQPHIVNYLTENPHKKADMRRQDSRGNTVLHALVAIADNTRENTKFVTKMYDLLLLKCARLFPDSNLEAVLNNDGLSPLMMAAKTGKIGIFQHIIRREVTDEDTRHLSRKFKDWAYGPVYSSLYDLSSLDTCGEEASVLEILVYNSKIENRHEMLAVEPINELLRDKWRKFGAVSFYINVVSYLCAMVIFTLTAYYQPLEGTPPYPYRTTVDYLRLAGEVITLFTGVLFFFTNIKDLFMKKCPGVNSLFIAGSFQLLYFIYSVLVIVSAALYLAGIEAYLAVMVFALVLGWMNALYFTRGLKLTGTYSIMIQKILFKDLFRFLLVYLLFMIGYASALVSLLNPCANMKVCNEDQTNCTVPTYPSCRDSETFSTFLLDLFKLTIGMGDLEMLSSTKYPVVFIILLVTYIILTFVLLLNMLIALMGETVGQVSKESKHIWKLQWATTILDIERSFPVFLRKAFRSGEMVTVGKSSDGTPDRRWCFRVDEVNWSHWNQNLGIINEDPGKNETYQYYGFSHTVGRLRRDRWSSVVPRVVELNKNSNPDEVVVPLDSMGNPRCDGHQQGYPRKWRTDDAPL
hTRPV4-Y591A, sequence (Q9HBA0 whole entry Y591A): as the sequence (Q9HBA0 whole entry D546A) above, with A546D, Y591A counted along it
hTRPV4-Y591H, sequence (Q9HBA0 whole entry Y591H): as the sequence (Q9HBA0 whole entry D546A) above, with A546D, Y591H counted along it
human TRPV4 wild-type (hTRPV4-WT), sequence (Q9HBA0 whole entry): as the sequence (Q9HBA0 whole entry D546A) above, with A546D counted along it

## CC(C)C[C@H](NC(=O)c1cc2ccccc2s1)C(=O)N1CCN(C(=O)[C@H](CO)NS(=O)(=O)c2ccc(Cl)cc2Cl)CC1 [GSK1016790A, N‐((1S)‐1‐{[4‐((2S)‐2‐{[(2,4‐Dichlorophenyl)sulfonyl]amino}‐3‐hydroxypropanoyl)‐1‐piperazinyl]carbonyl}‐3‐methylbutyl)‐1‐benzothiophene‐2‐carboxamide]
hTRPV4-D546A; TRPV4-D546A, HeLa cells, Ca2+ imaging
  Channel activation by agonist: activated
hTRPV4-Y591A; hTRPV4-Y591A, 1-nM GSK1016790A
  Channel response to agonist: Neither hTRPV4‐Y591A nor hTRPV4‐Y591H responded
hTRPV4-Y591H; hTRPV4-Y591H, 1-nM GSK1016790A
  Channel response to agonist: Neither hTRPV4‐Y591A nor hTRPV4‐Y591H responded
[1]
  Channel activation by agonist: activated

## CC(C)(O)c1cnc(N2C[C@@]3(CCC[C@](C)(Cn4cnc5ccc(C#N)cc54)C3)OC2=O)cn1 [GSK2798745]
TRPV4
  IC50: 0.016 µM

## N.N.N.N.N.N.N.N.N.N.N.N.N.N.[Cl-].[Cl-].[Cl-].[Cl-].[Cl-].[Cl-].[O-2].[O-2].[Ru+3].[Ru+3].[Ru+4] [ruthenium red]
hTRPV4-D546A; 1-nM GSK1016790A, ruthenium red 10 nM to 10 μM
  Blocking effect in mutant versus wild-type channel: not affected
hTRPV4-D546A; 30% hypotonic solution, 1-μM ruthenium red
  Blocking effect in mutant versus wild-type channel: not affected
hTRPV4-Y591A; Y591A, 30% hypotonic solution, 1-μM ruthenium red
  Blocking effect in mutant versus wild-type channel: not affected
hTRPV4-Y591H; Y591H, 30% hypotonic solution, 1-μM ruthenium red
  Blocking effect in mutant versus wild-type channel: not affected
